For the experiment, the target named is human FXR (NR1H4) (Homo sapiens (Human), UniProt Q96RI1). The experiment in a line: Human FXR (NR1H4) Assay (Gal4 promoter driven luciferase reporter, Indigo Bioscience kit IB00601). Type of experiment: cell-based. Conditions: for Efficacy (%): efficacy normalized to CDCA set as 100%; for EC50: potency ranges. In short, it runs like this: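 CHO reporter cells expressing human FXR with Gal4-driven, FXR-responsive luciferase treated with compound doses (0.2% DMSO) for 22 hours at 37° C. Luciferase luminescence then measured as surrogate of FXR activation for potency and efficacy.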
human FXR (NR1H4), sequence (Q96RI1 whole entry, the tested form may be a part): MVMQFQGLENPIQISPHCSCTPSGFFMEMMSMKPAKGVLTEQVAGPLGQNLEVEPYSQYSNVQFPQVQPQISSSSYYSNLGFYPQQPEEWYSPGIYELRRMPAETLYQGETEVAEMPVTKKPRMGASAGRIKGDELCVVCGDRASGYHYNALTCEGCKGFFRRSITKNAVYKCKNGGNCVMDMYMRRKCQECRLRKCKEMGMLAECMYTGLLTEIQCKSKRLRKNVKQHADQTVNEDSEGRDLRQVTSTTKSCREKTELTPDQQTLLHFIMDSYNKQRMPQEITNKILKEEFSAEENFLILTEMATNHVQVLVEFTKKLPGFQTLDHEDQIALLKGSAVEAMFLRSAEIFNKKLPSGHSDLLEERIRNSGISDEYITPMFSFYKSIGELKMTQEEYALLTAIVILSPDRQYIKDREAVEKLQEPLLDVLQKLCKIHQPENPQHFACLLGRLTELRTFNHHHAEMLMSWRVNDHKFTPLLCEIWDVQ
On the technique in general: A reporter such as luciferase makes a cellular process visible.

Molecules are shown by their SMILES.

Broadly, the EC50 is the concentration at which the effect is half-maximal. Read a low EC50 as higher potency in that assay.

For `CC[C@H]1[C@@H](O)[C@@H]2[C@H](CC[C@]3(C)[C@@H]([C@H](C)CNC(=O)NS(=O)(=O)c4ccc(C5CCCCC5)cc4)CC[C@@H]23)[C@@]2(C)CC[C@@H](O)C[C@@H]12` [Example 113], the “Efficacy (%)” value is 366% and the EC50 was < 100 nM.

Consider `CC[C@H]1[C@@H](O)[C@@H]2[C@H](CC[C@]3(C)[C@@H]([C@H](C)CCNC(=O)NS(=O)(=O)C[C@@]45CCC(CC4=O)C5(C)C)CC[C@@H]23)[C@@]2(C)CC[C@@H](O)C[C@@H]12` [Example 61], for which the “Efficacy (%)” value is listed as 403% and the EC50 is < 100 nM.

For the molecule `CC[C@H]1[C@@H](O)[C@@H]2[C@H](CC[C@]3(C)[C@@H]([C@H](C)CCNC(=O)NS(=O)(=O)c4ccc(C)c(F)c4)CC[C@@H]23)[C@@]2(C)CC[C@@H](O)C[C@@H]12` [Example 16], the “Efficacy (%)” value turned out to be 265% and the EC50 is < 100 nM.

Consider `CC[C@H]1[C@@H](O)[C@@H]2[C@H](CC[C@]3(C)C([C@H](C)CCNS(=O)(=O)c4ccccc4)CC[C@@H]23)[C@@]2(C)CC[C@@H](O)C[C@@H]12` (stereo partly drawn) [Example 130], for which the “Efficacy (%)” value came to 146% and the EC50 lay in the range of 1000 to 10000 nM.

Turning to `CC[C@H]1[C@@H](O)[C@@H]2[C@H](CC[C@]3(C)[C@@H]([C@H](C)CCNC(=O)NS(=O)(=O)C4CC5CCC4C5)CC[C@@H]23)[C@@]2(C)CC[C@@H](O)C[C@@H]12` (stereo partly drawn) [Example 76], the “Efficacy (%)” value turned out to be 290% and the EC50 was < 100 nM.

As for `CC[C@H]1[C@@H](O)[C@@H]2[C@H](CC[C@]3(C)[C@@H]([C@H](C)CCNC(=O)NS(=O)(=O)c4cccc(-c5nc(C)cs5)c4)CC[C@@H]23)[C@@]2(C)CC[C@@H](O)C[C@@H]12` [Example 80], the “Efficacy (%)” value turned out to be 295% and the EC50 fell in the range of 100 to 1000 nM.

For `CC[C@H]1[C@@H](O)[C@@H]2[C@H](CC[C@]3(C)[C@@H]([C@H](C)CCNC(=O)NS(=O)(=O)C4CC4)CC[C@@H]23)[C@@]2(C)CC[C@@H](O)C[C@@H]12` [Example 5], the “Efficacy (%)” value came out at 369% and the EC50 lay within 100 to 1000 nM.

For the molecule `CC[C@H]1[C@@H](O)[C@@H]2[C@H](CC[C@]3(C)[C@@H]([C@H](C)CCNC(=O)NS(=O)(=O)N4CCS(=O)(=O)CC4)CC[C@@H]23)[C@@]2(C)CC[C@@H](O)C[C@@H]12` [Example 83], the “Efficacy (%)” value is reported as 348% and the EC50 was in the range of 1000 to 10000 nM.

With `CC[C@H]1[C@@H](O)[C@@H]2[C@H](CC[C@]3(C)[C@@H]([C@H](C)CCNC(=O)NS(=O)(=O)c4ccc(C(=O)O)cc4)CC[C@@H]23)[C@@]2(C)CC[C@@H](O)C[C@@H]12` [Example 120], the “Efficacy (%)” value amounted to 198% and the EC50 fell in the range of 1000 to 10000 nM.

Regarding `CC[C@H]1[C@@H](O)[C@@H]2[C@H](CC[C@]3(C)[C@@H]([C@H](C)CCNC(=O)NS(=O)(=O)N4CCCC4)CC[C@@H]23)[C@@]2(C)CC[C@@H](O)C[C@@H]12` [Example 48], the “Efficacy (%)” value amounted to 420% and the EC50 was < 100 nM.

`CC[C@H]1[C@@H](O)[C@@H]2[C@H](CC[C@]3(C)[C@@H]([C@H](C)CCCCNS(=O)(=O)C(C)(C)C)CC[C@@H]23)[C@@]2(C)CC[C@@H](O)C[C@@H]12` [Example 136]: the “Efficacy (%)” value is 159% and the concentration for a half-maximal effect (EC50) lay within 1000 to 10000 nM.

For `CC[C@H]1[C@@H](O)[C@@H]2[C@H](CC[C@]3(C)[C@@H]([C@H](C)CNS(=O)(=O)CCC(=O)O)CC[C@@H]23)[C@@]2(C)CC[C@@H](O)C[C@@H]12` [Example 140], the “Efficacy (%)” value came out at 1%.

Consider `CC[C@H]1[C@@H](O)[C@@H]2[C@H](CC[C@]3(C)[C@@H]([C@H](C)CCNC(=O)NS(=O)(=O)c4ccc5c(c4)CCCC5)CC[C@@H]23)[C@@]2(C)CC[C@@H](O)C[C@@H]12` [Example 57], for which the “Efficacy (%)” value amounted to 297% and the EC50 is < 100 nM.

As for `CC[C@H]1[C@@H](O)[C@@H]2[C@H](CC[C@]3(C)[C@@H]([C@H](C)CCNC(=O)NS(=O)(=O)c4cccc5ncccc45)CC[C@@H]23)[C@@]2(C)CC[C@@H](O)C[C@@H]12` [Example 107], the “Efficacy (%)” value is reported as 311% and the EC50 is 100 to 1000 nM.

For the molecule `CC[C@H]1[C@@H](O)[C@@H]2[C@H](CC[C@]3(C)[C@@H]([C@H](C)CCNC(=O)NS(=O)(=O)C(C)(C)CO)CC[C@@H]23)[C@@]2(C)CC[C@@H](O)C[C@@H]12` [Example 122], the “Efficacy (%)” value turned out to be 121% and the 50% effective concentration (EC50) lay within 1000 to 10000 nM.

Regarding `CC[C@H]1[C@@H](O)[C@@H]2[C@H](CC[C@]3(C)[C@@H]([C@H](C)CCNC(=O)NS(=O)(=O)c4ccc(C5(C(F)(F)F)CC5)cc4)CC[C@@H]23)[C@@]2(C)CC[C@@H](O)C[C@@H]12` [Example 106], the “Efficacy (%)” value turned out to be 281% and the EC50 is < 100 nM.

With `CC[C@H]1[C@@H](O)[C@@H]2[C@H](CC[C@]3(C)[C@@H]([C@H](C)CCNC(=O)NS(=O)(=O)N4C[C@H](C)C[C@H](C)C4)CC[C@@H]23)[C@@]2(C)CC[C@@H](O)C[C@@H]12` [Example 97], the “Efficacy (%)” value stood at 308% and the EC50 is < 100 nM.

In the case of `CC[C@H]1[C@@H](O)[C@@H]2[C@H](CC[C@]3(C)[C@@H]([C@H](C)CCNC(=O)NS(=O)(=O)NC)CC[C@@H]23)[C@@]2(C)CC[C@@H](O)C[C@@H]12` [Example 125], the “Efficacy (%)” value was 256% and the EC50 lay in the range of 1000 to 10000 nM.

Turning to `CC[C@H]1[C@@H](O)[C@@H]2[C@H](CC[C@]3(C)[C@@H]([C@H](C)CCNC(=O)NS(=O)(=O)c4cccc(C)c4)CC[C@@H]23)[C@@]2(C)CC[C@@H](O)C[C@@H]12` [Example 13], the “Efficacy (%)” value is on record as 245% and the EC50 was < 100 nM.

For `CC[C@H]1[C@@H](O)[C@@H]2[C@H](CC[C@]3(C)[C@@H]([C@H](C)CCCNS(=O)(=O)c4ccccc4)CC[C@@H]23)[C@@]2(C)CC[C@@H](O)C[C@@H]12` [Example 10], the “Efficacy (%)” value is 168% and the EC50 was in the range of 100 to 1000 nM.

Turning to `CC[C@H]1[C@@H](O)[C@@H]2[C@H](CC[C@]3(C)[C@@H]([C@H](C)CNC(=O)NS(=O)(=O)c4cccc(OC(F)(F)F)c4)CC[C@@H]23)[C@@]2(C)CC[C@@H](O)C[C@@H]12` [Example 116], the “Efficacy (%)” value is 322% and the EC50 was < 100 nM.

Consider `CC[C@H]1[C@@H](O)[C@@H]2[C@H](CC[C@]3(C)[C@@H]([C@H](C)CNC(=O)NS(=O)(=O)c4ccc(-c5ccccc5)s4)CC[C@@H]23)[C@@]2(C)CC[C@@H](O)C[C@@H]12` [Example 114], for which the “Efficacy (%)” value was 322% and the EC50 was < 100 nM.

In the case of `CC[C@H]1[C@@H](O)[C@@H]2[C@H](CC[C@]3(C)[C@@H]([C@H](C)CCNC(=O)NS(=O)(=O)c4ccc(OC)cc4)CC[C@@H]23)[C@@]2(C)CC[C@@H](O)C[C@@H]12` [Example 15], the “Efficacy (%)” value is recorded as 337% and the EC50 was < 100 nM.

Source of the values: patent publication US10208081B2, “Bile acid derivatives as FXR/TGR5 agonists and methods of use thereof” (Enanta Pharmaceuticals, Inc., priority 2014, dated 2019).
